What was measured:
human glucagon receptor [1] = target: T1, human glucagon receptor (Homo sapiens (Human), UniProt P47871); assay: Glucagon cAMP Assay (Cisbio cAMP detection); format: cell-based; details: CHOK1 cells stably transfected with the human glucagon receptor; block of glucagon induced cAMP production; Kb by modified Cheng-Prusoff equation
Description: The Cisbio cAMP detection assay is used to determine the ability of punitive glucagon antagonist to block glucagon induced cAMP production. Potential glucagon antagonists are re-suspended and diluted in 100% DMSO. Prior to use in the Glucagon cAMP assay 100×DMSO compound stocks are diluted 20× with DMEM-F12 media (Invitrogen) containing either 0.1% or 4% BSA. […] 2 μls of 5% DMSO or known glucagon antagonist are added to each plate to define the assay window. CHOK1 cells stably transfected with the human glucagon receptor are removed from culture flasks with cell dissociation buffer. Cell pellets are re-suspended, at a concentration of 8.3e^5 cells/ml in DMEM-F12 with or without 4% BSA and 200 uM IBMX. 6 μls of cell suspensions are added to the assay plates. Plates are incubated for 20 min at room temperature prior to the addition of a 100 μM challenge dose of glucagon. On a separate plate glucagon dose response curves are run to determine the EC50 of glucagon. After a 30 min room temperature incubation the reaction is terminated by the addition of lysis buffer containing the cAMP detection reagents. Plates are incubated for an additional 60 min at room temperature prior to being read on the Perkin Elmer fluorescent plate reader. Raw is converted to nM of cAMP produced based on a cAMP standard curve. Converted data is then analyzed using the Pfizer data analysis program. IC50 values are determined from the generated sigmoidal dose response curves. Kb values are calculated using a modified Cheng-Prusoff equation. N is the number of times the compound was assayed.

human glucagon receptor [2] = target: T1, human glucagon receptor; assay: Human Glucagon SPA Assay (binding of [125I]Glucagon-Cex); details: membrane from chem-1 cells stably transfected with the human glucagon receptor, Ki by Cheng-Prusoff equation
Description: The Glucagon SPA assay is used to determine the ability of test compounds to block the binding of glucagon-cex to the glucagon receptor. Test compounds are re-suspended and serially diluted in 100% DMSO. 1 μl of test compound at the desired concentrations is spotted into the appropriate wells of 96 well low binding white clear bottom plate (Corning). 1 μl of DMSO is spotted into total binding wells. 1 μl of a known glucagon antagonist at a concentration of 20 μM is added to non specific binding wells. […] All assay ingredients with the exception of test compounds are re-suspended in the following buffer; 50 mM Hepes pH 7.4; 5 mM MgCl2; 1 mM CaCl; 5% glycerol and 0.2% BSA. Following a 6-10 hr incubation at room temperature the amount of hot ligand bound to the cell membranes is determined by reading the plates on a Wallac Trilux radioactive emission detector. Data is analyzed using Pfizer's Data analysis program. IC50 values are then determined from the generated sigmoidal dose response curves. Ki values are calculated using Cheng-Prusoff equation. N is the number of times the compound was assayed.

T1 sequence (P47871 26-477): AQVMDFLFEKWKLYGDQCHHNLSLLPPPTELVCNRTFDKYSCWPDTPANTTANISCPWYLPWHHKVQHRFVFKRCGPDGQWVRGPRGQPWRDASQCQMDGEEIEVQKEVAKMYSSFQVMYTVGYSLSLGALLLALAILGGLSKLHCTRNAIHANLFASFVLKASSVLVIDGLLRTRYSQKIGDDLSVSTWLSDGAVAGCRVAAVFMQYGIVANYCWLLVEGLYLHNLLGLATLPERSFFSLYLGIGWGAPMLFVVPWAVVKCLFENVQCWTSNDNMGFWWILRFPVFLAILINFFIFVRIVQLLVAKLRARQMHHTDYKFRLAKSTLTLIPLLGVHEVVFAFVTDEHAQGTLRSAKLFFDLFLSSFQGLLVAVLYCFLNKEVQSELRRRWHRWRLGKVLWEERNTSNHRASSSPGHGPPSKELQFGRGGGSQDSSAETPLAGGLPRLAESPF

In the case of `CCCC(Oc1ccc(-n2cc(Cl)c(C)n2)cc1)c1ccc(C(=O)NCCC(=O)O)cc1` (racemic) [Example 22, (+/−)-3-(4-(1-(4-(4-chloro-3-methyl-1H-pyrazol-1-yl)phenoxy)butyl)benzamido)propanoic acid], the Kb (human glucagon receptor [1]) is reported as 835 nM and the Ki (human glucagon receptor [2]) is reported as 665 nM.
`CCCCc1ccn(-c2ccc(OC(CCC)c3ccc(C(=O)NCCC(=O)O)cc3)cc2)n1` (racemic) [Example 31, (+/−)-3-(4-(1-(4-(3-butyl-1H-pyrazol-1-yl)phenoxy)butyl)benzamido)propanoic acid] was tested, and the Kb (human glucagon receptor [1]) was 1450 nM and the Ki (human glucagon receptor [2]) was 1330 nM.
Compound `CCCC(Oc1ccc(-c2cc(C(F)(F)F)nn2C)cc1)c1ccc(C(=O)NCCC(=O)O)cc1` (racemic) [Example 53, (+/−)-3-(4-(1-(4-(1-methyl-3-(trifluoromethyl)-1H-pyrazol-5-yl)phenoxy)butyl)benzamido)propanoic acid] has a Kb (human glucagon receptor [1]) of 2610 nM and a Ki (human glucagon receptor [2]) of 556 nM.
Work on `O=C(O)CCNC(=O)c1ccc(C(Nc2ccc(-n3cc(C(F)(F)F)cn3)nc2)C2CCCCC2)cc1` (racemic) [Example 101, (+/−)-3-(4-(cyclohexyl(6-(4-(trifluoromethyl)-1H-pyrazol-1-yl)pyridine-3-ylamino)methyl)benzamido)propanoic acid] yielded a Kb (human glucagon receptor [1]) of 79.3 nM and a Ki (human glucagon receptor [2]) of 17 nM.
Compound `Cc1cc(NC(CC(C)C)c2ccc(C(=O)NCCC(=O)O)cc2)cnc1-n1cc(C(F)(F)F)cn1` (racemic) [Example 105, (+/−)-3-(4-(3-methyl-1-(5-methyl-6-(4-(trifluoromethyl)-1H-pyrazol-1-yl)pyridin-3-ylamino)butyl)benzamido)propanoic acid] has a Kb (human glucagon receptor [1]) of 455 nM and a Ki (human glucagon receptor [2]) of 69.8 nM.
For `O=C(O)CCNC(=O)c1ccc(C(Nc2ccc(-n3cc(C(F)(F)F)cn3)nc2)C2CCC2)cc1` (racemic) [Example 106, (+/−)-3-(4-(cyclobutyl(6-(4-(trifluoromethyl)-1H-pyrazol-1-yl)pyridin-3-ylamino)methyl)benzamido)propanoic acid], the Kb (human glucagon receptor [1]) was 187 nM and the Ki (human glucagon receptor [2]) was 91.9 nM.
`O=C(O)CCNC(=O)c1ccc(C(CC2CC2)Nc2ccc(-n3cc(C(F)(F)F)cn3)nc2)cc1` (racemic) [Example 107, (+/−)-3-(4-(2-cyclopropyl-1-(6-(4-(trifluoromethyl)-1H-pyrazol-1-yl)pyridin-3-ylamino)ethyl)benzamido)propanoic acid] was tested, and the Kb (human glucagon receptor [1]) was 252 nM and the Ki (human glucagon receptor [2]) was 71.6 nM.
With `O=C(O)CCNC(=O)c1ccc(C(Oc2ccc(-n3cc4ccccc4n3)cc2)C2CCCC2)cc1` (racemic) [Example 119, (+/−)-3-(4-((4-(2H-indazol-2-yl)phenoxy)(cyclopentyl)methyl)benzamido)propanoic acid] the Kb (human glucagon receptor [1]) was 67 nM and the Ki (human glucagon receptor [2]) was 103 nM.
In the case of `O=C(O)CCNC(=O)c1ccc(C(Nc2ccc(-n3cnc(C(F)(F)F)c3)nc2)C(F)(F)F)cc1` (racemic) [Example 121, (+/−)-3-(4-(2,2,2-trifluoro-1-(6-(4-(trifluoromethyl)-1H-imidazol-1-yl)pyridin-3-ylamino)ethyl)benzamido)propanoic acid], the Kb (human glucagon receptor [1]) is reported as 764 nM and the Ki (human glucagon receptor [2]) is reported as 298 nM.
`CC(C)(C)c1cn(-c2ccc(NC(c3ccc(C(=O)NCCC(=O)O)cc3)C3CCCC3)cn2)cn1` (racemic) [Example 122, (+/−)-3-(4-((6-(4-tert-butyl-1H-imidazol-1-yl)pyridin-3-ylamino)(cyclopentyl)methyl)benzamido)propanoic acid] gave a Kb (human glucagon receptor [1]) of 43 nM and a Ki (human glucagon receptor [2]) of 45.7 nM.
Work on `CCCC(Oc1cnc(-n2cc(C(F)(F)F)cn2)c(C)c1)c1ccc(C(=O)NCCC(=O)O)cc1` (racemic) [Example 150, (+/−)-3-(4-(1-(5-methyl-6-(4-(trifluoromethyl)-1H-pyrazol-1-yl)pyridin-3-yloxy)butyl)benzamido)propanoic acid] yielded a Kb (human glucagon receptor [1]) of 1640 nM and a Ki (human glucagon receptor [2]) of 446 nM.
In the case of `Cc1cc(OC(c2ccc(C(=O)NCCC(=O)O)cc2)C2CCC2)cc(C)c1-n1cc(C(F)(F)F)cn1` (racemic) [Example 151, (+/−)-3-(4-(cyclobutyl(3,5-dimethyl-4-(4-(trifluoromethyl)-1H-pyrazol-1-yl)phenoxy)methyl)benzamido)propanoic acid], the Kb (human glucagon receptor [1]) is reported as 227 nM and the Ki (human glucagon receptor [2]) is reported as 20.2 nM.
Work on `Cc1cc(OC(c2ccc(C(=O)NCCC(=O)O)cc2)C2CC(C)(C)C2)cc(C)c1-n1cc(C(F)(F)F)cn1` (racemic) [Example 152, (+/−)-3-(4-((3,5-dimethyl-4-(4-(trifluoromethyl)-1H-pyrazol-1-yl)phenoxy)(3,3-dimethylcyclobutyl)methyl)benzamido)propanoic acid] yielded a Kb (human glucagon receptor [1]) of 301 nM and a Ki (human glucagon receptor [2]) of 35.2 nM.
With `CCCC(Oc1cc(C)c(-n2cc(C(F)(F)F)cn2)c(OC)c1)c1ccc(C(=O)NCCC(=O)O)cc1` (racemic) [Example 153, (+/−)-3-(4-(1-(3-methoxy-5-methyl-4-(4-(trifluoromethyl)-1H-pyrazol-1-yl)phenoxy)butyl)benzamido)propanoic acid] the Kb (human glucagon receptor [1]) was 225 nM and the Ki (human glucagon receptor [2]) was 32.3 nM.
Work on `O=C(O)CCNC(=O)c1ccc(C(Nc2ccc(-n3cnc(C(F)(F)F)c3)nc2)C2CC(F)(F)C2)cc1` (racemic) [Example 154, (+/−)-3-(4-((3,3-difluorocyclobutyl)(6-(4-(trifluoromethyl)-1H-imidazol-1-yl)pyridin-3-ylamino)methyl)benzamido)propanoic acid] yielded a Kb (human glucagon receptor [1]) of 629 nM and a Ki (human glucagon receptor [2]) of 235 nM.
With `CCCC(Nc1ccc(-n2cnc(-c3ccccc3)c2)nc1)c1ccc(C(=O)NCCC(=O)O)cc1` (racemic) [Example 162, (+/−)-3-(4-(1-(6-(4-phenyl-1H-imidazol-1-yl)pyridin-3-ylamino)butyl)benzamido)propanoic acid] the Kb (human glucagon receptor [1]) was 55.8 nM and the Ki (human glucagon receptor [2]) was 47.3 nM.
With `Cc1nn(-c2ccc(NC(c3ccc(C(=O)NCCC(=O)O)cc3)C3CCCC3)cn2)cc1Cl` (racemic) [Example 163, (+/−)-3-(4-((6-(4-chloro-3-methyl-1H-pyrazol-1-yl)pyridin-3-ylamino)(cyclopentyl)methyl)benzamido)propanoic acid] the Kb (human glucagon receptor [1]) was 42.7 nM and the Ki (human glucagon receptor [2]) was 65.9 nM.
`CCCC(Nc1ccc(-n2cc(-c3ccccn3)cn2)nc1)c1ccc(C(=O)NCCC(=O)O)cc1` (racemic) [Example 164] showed a Kb (human glucagon receptor [1]) of 52.4 nM and a Ki (human glucagon receptor [2]) of 192 nM.
In the case of `CCCC(Nc1ccc(-n2cc(-c3ccccc3)cn2)nc1)c1ccc(C(=O)N(C)CCC(=O)O)cc1` (racemic) [Example 165, (+/−)-3-(N-methyl-4-(1-(6-(4-phenyl-1H-pyrazol-1-yl)pyridin-3-ylamino)butyl)benzamido)propanoic acid], the Kb (human glucagon receptor [1]) is reported as 305 nM and the Ki (human glucagon receptor [2]) is reported as 142 nM.
In the case of `CCCC(Nc1ccc(-n2cc(C3CC3)cn2)nc1)c1ccc(C(=O)NCCC(=O)O)cc1` (racemic) [Example 176, (+/−)-N-[4-(1-{[6-(4-cyclopropyl-1H-pyrazol-1-yl)pyridin-3-yl]amino}butyl)benzoyl]-beta-alanine], the Kb (human glucagon receptor [1]) is reported as 79.1 nM and the Ki (human glucagon receptor [2]) is reported as 101 nM.
In the case of `O=C(O)CCNC(=O)c1ccc(C(Nc2ccc(-n3cc(C(F)(F)F)cn3)nc2)C2CCOCC2)cc1` (racemic) [Example 177, (±)-3-(4-((tetrahydro-2H-pyran-4-yl)((6-(4-(trifluoromethyl)-1H-pyrazol-1-yl)pyridin-3-yl)amino)methyl)benzamido)propanoic acid], the Kb (human glucagon receptor [1]) is reported as 2340 nM and the Ki (human glucagon receptor [2]) is reported as 432 nM.
With `CC(C)(C)C(Nc1ccc(-n2cc(C(F)(F)F)cn2)nc1)c1ccc(C(=O)NCCC(=O)O)cc1` (racemic) [Example 178, (±)-3-(4-(2,2-dimethyl-1-((6-(4-(trifluoromethyl)-1H-pyrazol-1-yl)pyridin-3-yl)amino)propyl)benzamido)propanoic acid] the Kb (human glucagon receptor [1]) was 215 nM and the Ki (human glucagon receptor [2]) was 37.4 nM.
`CC(C)(C)C(Nc1ccc(-n2cnc(C(F)(F)F)c2)nc1)c1ccc(C(=O)NCCC(=O)O)cc1` (racemic) [Example 181, (±)-3-(4-(2,2-dimethyl-1-((6-(4-(trifluoromethyl)-1H-imidazol-1-yl)pyridin-3-yl)amino)propyl)benzamido)propanoic acid] showed a Kb (human glucagon receptor [1]) of 195 nM and a Ki (human glucagon receptor [2]) of 87.2 nM.
Work on `CCCC(Oc1cc(F)c(-n2cc(C(F)(F)F)cn2)c(F)c1)c1ccc(C(=O)NCCC(=O)O)cc1` (racemic) [Example 184, (+/−)-3-(4-{1-[3,5-difluoro-4-(4-trifluoromethyl-pyrazol-1-yl)-phenoxy]-butyl}-benzoylamino)-propionic acid] yielded a Kb (human glucagon receptor [1]) of 321 nM and a Ki (human glucagon receptor [2]) of 240 nM.
For `CCCC(Oc1ccc(-n2cc3cc(F)ccc3n2)cc1)c1ccc(C(=O)NCCC(=O)O)cc1` (racemic) [Example 185, (+/−)-3-(4-{1-[4-(5-fluoro-indazol-2-yl)-phenoxy]-butyl}-benzoylamino)-propionic acid], the Kb (human glucagon receptor [1]) was 175 nM and the Ki (human glucagon receptor [2]) was 137 nM.
